Laboratory results published in patent US8461083B2, “Herbicidal compounds” (Syngenta Limited, priority 2008, dated 2013).

What was measured:
Format in all cases: in vivo
[1] = tested on: Setaria faberi (SETFA); experiment: Pre-emergence herbicidal glasshouse test; conditions: pre-emergence (sprayed after one day cultivation), evaluated after 13 days, 100=total damage to plant, 0=no damage to plant; for pest or weed control at 1000 g/ha: Setaria faberi, 312 h, read-out: PRE Application SETFA, damage to plant
In short: (§1)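 Pots of SETFA, SOLNI, AMARE and ALOMY sprayed 1 day (pre-) or 8 days (post-emergence) after sowing at 1000 g/ha, formulated in acetone/water (50:50) with 0.5% Tween 20. Glasshouse at 24/16° C day/night, 14 h light, 65% humidity. Damage scored 0–100 after 13 days.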

[2] = tested on: Solanum nigrum (SOLNI); experiment: Pre-emergence herbicidal glasshouse test; conditions: pre-emergence (sprayed after one day cultivation), evaluated after 13 days, 100=total damage to plant, 0=no damage to plant; for pest or weed control at 1000 g/ha: Solanum nigrum, 312 h, read-out: PRE Application SOLNI, damage to plant
In short: as §1

[3] = tested on: Alopecurus myosuroides (ALOMY); experiment: Pre-emergence herbicidal glasshouse test; conditions: pre-emergence (sprayed after one day cultivation), evaluated after 13 days, 100=total damage to plant, 0=no damage to plant; for pest or weed control at 1000 g/ha: Alopecurus myosuroides, 312 h, read-out: PRE Application ALOMY, damage to plant
In short: as §1

[4] = tested on: Amaranthus retoflexus (AMARE); experiment: Pre-emergence herbicidal glasshouse test; conditions: pre-emergence (sprayed after one day cultivation), evaluated after 13 days, 100=total damage to plant, 0=no damage to plant; for pest or weed control at 1000 g/ha: Amaranthus retroflexus, 312 h, read-out: PRE Application AMARE, damage to plant
In short: as §1

[5] = tested on: Echinochloa crus-galli (ECHCG); experiment: Pre-emergence herbicidal glasshouse test; conditions: pre-emergence (sprayed after one day cultivation), evaluated after 13 days, 100=total damage to plant, 0=no damage to plant; for pest or weed control at 1000 g/ha: Echinochloa crus-galli, 312 h, read-out: PRE Application ECHCG, damage to plant
In short: (§2)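 Spray at 1000 g/ha, acetone/water 50:50 + 0.5% Tween 20; pre-em 1 d post-sowing, post-em 8 d post-sowing. Glasshouse 24/16 °C, 14 h light, 65% RH, watered twice daily. Visual damage score 0–100 at 13 d.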

[6] = tested on: Setaria faberi (SETFA); experiment: Post-emergence herbicidal glasshouse test; conditions: post-emergence (sprayed after 8 days cultivation), evaluated after 13 days, 100=total damage to plant, 0=no damage to plant; for pest or weed control at 1000 g/ha: Setaria faberi, 312 h, read-out: POST Application SETFA, damage to plant
In short: as §1

[7] = tested on: Solanum nigrum (SOLNI); experiment: Post-emergence herbicidal glasshouse test; conditions: post-emergence (sprayed after 8 days cultivation), evaluated after 13 days, 100=total damage to plant, 0=no damage to plant; for pest or weed control at 1000 g/ha: Solanum nigrum, 312 h, read-out: POST Application SOLNI, damage to plant
In short: as §1

[8] = tested on: Alopecurus myosuroides (ALOMY); experiment: Post-emergence herbicidal glasshouse test; conditions: post-emergence (sprayed after 8 days cultivation), evaluated after 13 days, 100=total damage to plant, 0=no damage to plant; for pest or weed control at 1000 g/ha: Alopecurus myosuroides, 312 h, read-out: POST Application ALOMY, damage to plant
In short: as §1

[9] = tested on: Amaranthus retoflexus (AMARE); experiment: Post-emergence herbicidal glasshouse test; conditions: post-emergence (sprayed after 8 days cultivation), evaluated after 13 days, 100=total damage to plant, 0=no damage to plant; for pest or weed control at 1000 g/ha: Amaranthus retroflexus, 312 h, read-out: POST Application AMARE, damage to plant
In short: as §1

[10] = tested on: Echinochloa crus-galli (ECHCG); experiment: Post-emergence herbicidal glasshouse test; conditions: post-emergence (sprayed after 8 days cultivation), evaluated after 13 days, 100=total damage to plant, 0=no damage to plant; for pest or weed control at 1000 g/ha: Echinochloa crus-galli, 312 h, read-out: POST Application ECHCG, damage to plant
In short: as §2

Compound	pest or weed control at 1000 g/ha [1] [%]	pest or weed control at 1000 g/ha [2] [%]	pest or weed control at 1000 g/ha [3] [%]	pest or weed control at 1000 g/ha [4] [%]	pest or weed control at 1000 g/ha [5] [%]	pest or weed control at 1000 g/ha [6] [%]	pest or weed control at 1000 g/ha [7] [%]	pest or weed control at 1000 g/ha [8] [%]	pest or weed control at 1000 g/ha [9] [%]	pest or weed control at 1000 g/ha [10] [%]	PRE Application SETFA, damage to plant ([1]; 1000 g/ha)	PRE Application SOLNI, damage to plant ([2]; 1000 g/ha)	PRE Application ALOMY, damage to plant ([3]; 1000 g/ha)	PRE Application AMARE, damage to plant ([4]; 1000 g/ha)	PRE Application ECHCG, damage to plant ([5]; 1000 g/ha)	POST Application SETFA, damage to plant ([6]; 1000 g/ha)	POST Application SOLNI, damage to plant ([7]; 1000 g/ha)	POST Application ALOMY, damage to plant ([8]; 1000 g/ha)	POST Application AMARE, damage to plant ([9]; 1000 g/ha)	POST Application ECHCG, damage to plant ([10]; 1000 g/ha)
CCN(CC)c1nc2nc(C(F)(F)F)c(C(=O)C3C(=O)CCCC3=O)cc2cc1F [Compound 1.73, 2-[7-(diethylamino)-6-fluoro-2-trifluoromethyl-[1,8]-naphthyridine-3-carbony]-cyclohexane-1,3-dione]	100	100	60	70	100	80	70	60	70	80										
O=C(c1cc2cc(F)c(O)nc2nc1C(F)(F)F)C1C(=O)C2CCC(C2)C1=O (stereo not drawn) [Compound 3.1]	90	100	60	100	90	80	80	60	80	70										
CCCCCCCC(=O)OC1=C(C(=O)c2cc3cc(F)c(C)nc3nc2C(F)(F)F)C(=O)CCC1 [Compound 4.22, n-Octanoic acid 2-(6-fluoro-7-methyl-2-trifluoromethyl-[1,8]-naphthyridine-3-carbonyl)-3-oxo-cyclohex-1-enyl ester]	100	100	60	100	100	80	90	70	90	90										
O=C1CCCC(=O)C1C(=O)c1cc2ccc(Br)nc2nc1C(F)(F)F [Compound 1.99]	40	90	10	100	90	80	70	30	100	80										
CCOc1ccc2cc(C(=O)C3=C(OC(=O)C(C)C)CCCC3=O)c(C(F)(F)F)nc2n1 [Compound 4.19, isobutyric acid 2-(7-ethoxy-2-trifluoromethyl-[1,8]-naphthyridine-3-carbonyl)-3-oxo-cyclohex-1-enyl ester]	100	100	70	100	100	90	90	80	70	80										
COCCNc1nc2nc(C(F)(F)F)c(C(=O)C3C(=O)CCCC3=O)cc2cc1F [Compound 1.83, 2-[6-fluoro-7-(2-methoxyethylamino)-2-trifluoromethyl-[1,8]-naphthyridine-3-carbony]-cyclohexane-1,3-dione]											100	100	60	100	100	80	80	80	80	80
